In patent US9073935B2, “Substituted benzylspiroindolin-2-one analogs as positive allosteric modulators of the muscarinic acetylcholine receptor M1” (VANDERBILT UNIVERSITY, priority 2011, dated 2015):

Molecular target: T1, mAChR M1 (UniProt P11229)
T1 sequence (P11229 1-460): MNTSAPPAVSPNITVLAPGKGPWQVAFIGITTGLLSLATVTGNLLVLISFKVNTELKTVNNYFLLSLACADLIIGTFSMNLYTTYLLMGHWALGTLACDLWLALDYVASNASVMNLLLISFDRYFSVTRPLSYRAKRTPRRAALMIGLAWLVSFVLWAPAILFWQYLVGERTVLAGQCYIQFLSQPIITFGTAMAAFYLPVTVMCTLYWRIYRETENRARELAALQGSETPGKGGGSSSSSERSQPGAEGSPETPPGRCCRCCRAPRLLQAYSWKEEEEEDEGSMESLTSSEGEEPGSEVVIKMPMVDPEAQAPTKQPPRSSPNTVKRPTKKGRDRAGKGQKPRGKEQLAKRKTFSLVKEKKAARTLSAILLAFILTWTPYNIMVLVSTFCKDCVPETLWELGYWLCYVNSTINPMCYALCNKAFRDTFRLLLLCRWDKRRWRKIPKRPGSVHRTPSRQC
Assay: mAChR M1 cell-based functional assay (calcium mobilization, potentiation of EC20 acetylcholine response)
Settings: for Emax: % ACh maximum at 30 μM; for EC50: CHO-K1 cells expressing mAChR M1, increase in EC20 acetylcholine response, >10 μM estimated where no plateau in the curve
Description: Chinese hamster ovary (CHO-K1) cells stably expressing rat (r)M1 were purchased from the American Type Culture Collection and cultured according to their indicated protocol. […] To make stable rM2, hM2, rM3, hM4, and rM4 cell lines for use in calcium mobilization assays, these cells also were stably transfected with a chimeric G-protein (Gqi5) (provided by B. R. Conklin, University of California, San Francisco) using Lipofectamine 2000. rM1, hM1, rM3, hM3, rM5, and hM5 cells were grown in Ham's F-12 medium containing 10% heat-inactivated fetal bovine serum (FBS), 20 mM HEPES, and 50 μg/mL G418 sulfate. rM2-Gqi5, hM2-Gqi5, and hM4-Gqi5 cells were grown in the same medium also containing 500 μg/mL Hygromycin B. Stable rM4-Gqi5 cells were grown in DMEM containing 10% heat-inactivated FBS, 20 mM HEPES, 400 μg/mL G418 sulfate, and 500 μg/mL Hygromycin B.
For high throughput measurement of agonist-evoked increases in intracellular calcium, CHO-K1 cells stably expressing muscarinic receptors were plated in growth medium lacking G418 and hygromycin at 15,000 cells/20 μL/well in Greiner 384-well black-walled, tissue culture (TC)-treated, clear-bottom plates (VWR). Cells were incubated overnight at 37° C. and 5% CO2. […] Compound master plates were formatted in an 11 point CRC format (1:3 dilutions) in 100% DMSO with a starting concentration of 10 mM using the BRAVO liquid handler (Agilent). Test compound CRCs were then transferred to daughter plates ([…]) using the Echo acoustic plate reformatter (Labcyte, Sunnyvale, Calif.) and then diluted into assay buffer (40 μL) to a 2× stock using a Thermo Fisher Combi (Thermo Fisher Scientific, Waltham, Mass.).
Calcium flux was measured using the Functional Drug Screening System (FDSS) 6000 (Hamamatsu Corporation, Tokyo, Japan) as an increase in the fluorescent static ratio. Compounds were applied to cells (20 μL, 2×) using the automated system of the FDSS 6000 at 4 s into the 300 s protocol and the data were collected at 1 Hz. […] Agonist activity was analyzed as a concentration-dependent increase in calcium mobilization upon compound addition. Positive allosteric modulator activity was analyzed as a concentration-dependent increase in the EC20 acetylcholine response. Antagonist activity was analyzed as a concentration-dependent decrease in the EC80 acetylcholine response. Concentration-response curves were generated using a four-parameter logistical equation in XLfit curve fitting software (IDBS, Bridgewater, N.J.) for Excel (Microsoft, Redmond, Wash.) or Prism (GraphPad Software, Inc., San Diego, Calif.).
The calcium mobilization assay was also used to determine “efficacy”. In the context of the assays carried out for the data in Table II, “efficacy” (% ACh at 30 μM) is defined as the maximal response in the calcium flux as determined by the sigmoidal curve fit of the concentration response curve, or in the absence of an acceptable curve fit, the response recorded at 30 μM test compound, stated as a percentage of the response elicited by a concentration of Ach that induces approximately 80% of a maximal (i.e. saturating) ACh response.
Substituted benzylspiroindolin-2-one analogs were synthesized as described above. Activity (EC50 and Emax) was determined in the mAChR M1 cell-based functional assay as described above and the data are shown in Table III. The compound number corresponds to the compound numbers used in Tables I and II.

Row | Emax | EC50 | Compound
1 | 36% | > 10 µM | Cn1cc(-c2ccc(CN3C(=O)C4(CCN(CC5CCCCC5)C4)c4ccccc43)c(F)c2)cn1 (single isomer, unassigned) [Compound B72]
2 | 35% | > 10 µM | Cn1cc(-c2ccc(CN3C(=O)C4(CCN(S(C)(=O)=O)C4)c4ccccc43)c(F)c2)cn1 (stereo not shown) [Compound B65, 1-(2-fluoro-4-(1-methyl-1H-pyrazol-4-yl)benzyl)-1′-(methylsulfonyl)spiro[indoline-3,3′-pyrrolidin]-2-one]
